From the supplement of paper PMC10307832

compound: Cn1nnc2c(C(N)=O)ncn2c1=O [Temozolomide] + COc1cc2c(Oc3ccc(NC(=O)C4(C(=O)Nc5ccc(F)cc5)CC4)cc3F)ccnc2cc1OCCCN1CCOCC1 [Foretinib] (partner 0.25 µM); test: relative viability (nuclei count vs DMSO), 5 days (fraction); higher = more cells survive; settings: first compound 0.2 µM
Method in brief: (§1)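 Relative viability equals treated-well nuclei counts divided by vehicle-well nuclei counts. Counts came from 4× images of lung cancer cell lines grown in 1536-well plates for 5 days after pin-tool dosing on the day after seeding. Dosing used one drug alone or a fixed anchor-drug dose plus five library-drug doses (not always all listed) in √10 steps, and values are medians of duplicate plates.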

Cell Line	relative viability
NCI-H1650	1.14
NCI-H1651	0.914
NCI-H1666	0.917
NCI-H1734	0.874
NCI-H1755	0.979
NCI-H1915	1.11
NCI-H1944	0.756
NCI-H1975	0.997
NCI-H1993	0.81
NCI-H2009	1.23
NCI-H2023	0.825
NCI-H2085	0.847
NCI-H2087	1.23
NCI-H2126	1.04

same assay, conditions: first compound 0.6325 µM

Cell Line	relative viability
LC-2-ad	1
LCLC-97TM1	0.906
LK-2	1.44
LOU-NH91	0.913
LU99A	0.851
LXF-289	0.998
NCI-H23	0.979
NCI-H322M	0.937
NCI-H441	0.937
NCI-H460	0.967
NCI-H520	0.842
NCI-H596	0.925
NCI-H647	1.3
NCI-H838	0.939
NCI-H1355	0.938
NCI-H1395	0.92
NCI-H1437	1.25

Cell Line	relative viability
NCI-H1650	1.07
NCI-H1651	0.725
NCI-H1666	0.868
NCI-H1734	0.929
NCI-H1755	0.93
NCI-H1793	0.583
NCI-H1915	1.04
NCI-H1944	0.922
NCI-H1975	0.936
NCI-H1993	0.722
NCI-H2009	1.21
NCI-H2023	0.749
NCI-H2085	1.04
NCI-H2087	1.16
NCI-H2126	1.3
NCI-H2170	1.01

same assay, conditions: first compound 2 µM

Cell Line	relative viability
LC-2-ad	0.971
LCLC-97TM1	0.86
LK-2	1.19
LOU-NH91	0.941
LU99A	0.832
LXF-289	0.985
NCI-H23	0.97
NCI-H322M	1.12
NCI-H441	1.15
NCI-H460	1
NCI-H520	0.704
NCI-H596	0.997
NCI-H647	1.13
NCI-H838	1.02
NCI-H1355	1.1
NCI-H1395	1.03
NCI-H1437	1.27

Cell Line	relative viability
NCI-H1650	1.02
NCI-H1651	0.782
NCI-H1666	0.837
NCI-H1734	0.959
NCI-H1755	0.908
NCI-H1793	0.935
NCI-H1915	1
NCI-H1944	0.847
NCI-H1975	1.09
NCI-H1993	0.807
NCI-H2009	1.24
NCI-H2023	0.847
NCI-H2085	1.05
NCI-H2087	1.19
NCI-H2126	1.23
NCI-H2170	1.05

same assay, conditions: first compound 6.325 µM

Cell Line	relative viability
LC-2-ad	0.898
LCLC-97TM1	0.979
LK-2	0.742
LOU-NH91	0.568
LU99A	0.784
LXF-289	0.964
NCI-H23	0.778
NCI-H322M	0.982
NCI-H441	1.02
NCI-H460	0.96
NCI-H520	0.689
NCI-H596	0.451
NCI-H647	0.702
NCI-H838	0.994
NCI-H1355	1
NCI-H1395	0.94
NCI-H1437	1.26

Cell Line	relative viability
NCI-H1650	0.872
NCI-H1651	0.759
NCI-H1666	0.611
NCI-H1734	0.754
NCI-H1755	0.873
NCI-H1793	0.432
NCI-H1915	0.733
NCI-H1944	0.875
NCI-H1975	0.917
NCI-H1993	0.72
NCI-H2009	1.2
NCI-H2023	0.68
NCI-H2085	0.939
NCI-H2087	1.23
NCI-H2126	1.38
NCI-H2170	0.993

same assay, conditions: first compound 20 µM

Cell Line	relative viability
LC-2-ad	0.765
LCLC-97TM1	0.934
LK-2	0.519
LOU-NH91	0.569
LU99A	0.73
LXF-289	0.908
NCI-H23	1.05
NCI-H322M	0.864
NCI-H441	1.07
NCI-H460	1.11
NCI-H520	0.769
NCI-H596	0.818
NCI-H647	0.302
NCI-H838	1.09
NCI-H1355	0.908
NCI-H1395	0.911
NCI-H1437	1.31

Cell Line	relative viability
NCI-H1650	0.766
NCI-H1651	0.839
NCI-H1666	0.679
NCI-H1734	0.859
NCI-H1755	0.722
NCI-H1793	0.615
NCI-H1915	0.429
NCI-H1944	0.795
NCI-H1975	0.931
NCI-H1993	0.672
NCI-H2009	1.3
NCI-H2023	0.848
NCI-H2085	0.749
NCI-H2087	1.04
NCI-H2126	1.27
NCI-H2170	0.526

compound: Cn1nnc2c(C(N)=O)ncn2c1=O [Temozolomide] + Nc1nc2[nH]cc(CCc3ccc(C(=O)N[C@@H](CCC(=O)O)C(=O)O)cc3)c2c(=O)[nH]1 [Pemetrexed] (partner 0.2 µM); test: as above; settings: first compound 0.2 µM
Method in brief: as §1

Cell Line	relative viability
LC-2-ad	0.281
LCLC-97TM1	0.195
LK-2	0.284
LOU-NH91	0.389
LU99A	0.208
LXF-289	0.941
NCI-H23	0.825
NCI-H322M	0.56
NCI-H441	0.28
NCI-H460	0.0579
NCI-H520	0.723
NCI-H596	0.515
NCI-H647	0.169
NCI-H838	0.247
NCI-H1355	1.01
NCI-H1395	0.931

Cell Line	relative viability
NCI-H1437	0.31
NCI-H1650	0.335
NCI-H1651	0.58
NCI-H1666	0.736
NCI-H1734	0.398
NCI-H1755	0.433
NCI-H1915	0.55
NCI-H1944	0.546
NCI-H1975	0.307
NCI-H1993	0.517
NCI-H2009	1.08
NCI-H2023	0.232
NCI-H2085	1.04
NCI-H2087	0.624
NCI-H2126	0.573

same assay, conditions: first compound 0.6325 µM

Cell Line	relative viability
LC-2-ad	0.296
LCLC-97TM1	0.198
LK-2	0.288
LOU-NH91	0.366
LU99A	0.179
LXF-289	0.877
NCI-H23	0.749
NCI-H322M	0.591
NCI-H441	0.309
NCI-H460	0.0556
NCI-H520	0.595
NCI-H596	0.535
NCI-H647	0.17
NCI-H838	0.256
NCI-H1355	1.03
NCI-H1395	0.983
NCI-H1437	0.317

Cell Line	relative viability
NCI-H1650	0.349
NCI-H1651	0.588
NCI-H1666	0.895
NCI-H1734	0.422
NCI-H1755	0.43
NCI-H1793	1.19
NCI-H1915	0.491
NCI-H1944	0.601
NCI-H1975	0.323
NCI-H1993	0.669
NCI-H2009	1.06
NCI-H2023	0.249
NCI-H2085	0.951
NCI-H2087	0.667
NCI-H2126	0.653
NCI-H2170	0.283

same assay, conditions: first compound 2 µM

Cell Line	relative viability
LC-2-ad	0.279
LCLC-97TM1	0.177
LK-2	0.299
LOU-NH91	0.371
LU99A	0.175
LXF-289	0.868
NCI-H23	0.716
NCI-H322M	0.635
NCI-H441	0.272
NCI-H460	0.0638
NCI-H520	0.711
NCI-H596	0.621
NCI-H647	0.2
NCI-H838	0.254
NCI-H1355	0.963
NCI-H1395	1.03
NCI-H1437	0.376

Cell Line	relative viability
NCI-H1650	0.443
NCI-H1651	0.591
NCI-H1666	0.963
NCI-H1734	0.431
NCI-H1755	0.388
NCI-H1793	1.03
NCI-H1915	0.545
NCI-H1944	0.564
NCI-H1975	0.319
NCI-H1993	0.598
NCI-H2009	1.05
NCI-H2023	0.249
NCI-H2085	0.979
NCI-H2087	0.663
NCI-H2126	0.762
NCI-H2170	0.264

same assay, conditions: first compound 6.325 µM

Cell Line	relative viability
LC-2-ad	0.291
LCLC-97TM1	0.156
LK-2	0.264
LOU-NH91	0.395
LU99A	0.185
LXF-289	0.857
NCI-H23	0.565
NCI-H322M	0.499
NCI-H441	0.257
NCI-H460	0.0585
NCI-H520	0.631
NCI-H596	0.465
NCI-H647	0.146
NCI-H838	0.252
NCI-H1355	1
NCI-H1395	0.769
NCI-H1437	0.316

Cell Line	relative viability
NCI-H1650	0.355
NCI-H1651	0.6
NCI-H1666	0.877
NCI-H1734	0.394
NCI-H1755	0.39
NCI-H1793	0.718
NCI-H1915	0.429
NCI-H1944	0.58
NCI-H1975	0.299
NCI-H1993	0.569
NCI-H2009	1.08
NCI-H2023	0.221
NCI-H2085	0.926
NCI-H2087	0.676
NCI-H2126	0.666
NCI-H2170	0.253

same assay, conditions: first compound 20 µM

Cell Line	relative viability
LC-2-ad	0.287
LCLC-97TM1	0.209
LK-2	0.277
LOU-NH91	0.458
LU99A	0.252
LXF-289	0.868
NCI-H23	0.677
NCI-H322M	0.536
NCI-H441	0.236
NCI-H460	0.0573
NCI-H520	0.74
NCI-H596	0.574
NCI-H647	0.122
NCI-H838	0.233
NCI-H1355	0.998
NCI-H1395	0.754
NCI-H1437	0.277

Cell Line	relative viability
NCI-H1650	0.459
NCI-H1651	0.617
NCI-H1666	0.767
NCI-H1734	0.386
NCI-H1755	0.612
NCI-H1793	0.792
NCI-H1915	0.321
NCI-H1944	0.623
NCI-H1975	0.289
NCI-H1993	0.525
NCI-H2009	1.04
NCI-H2023	0.228
NCI-H2085	0.744
NCI-H2087	0.696
NCI-H2126	0.67
NCI-H2170	0.237
